{"source": "patent US20240116923A1", "about": "“USE OF INDOLE, 6- AND 7-AZAINDOLE DERIVATIVES AS INHIBITORS OF FERROPTOSIS REGULATED CELL DEATH” (Seabelife, priority 2021, published 2024)", "test_system": "male Wistar rats", "experiment": "In vivo model of ischaemic acute renal failure induced by transient bilateral renal artery occlusion", "conditions": "rat, 15 mg/kg IP", "description": "The experiment was carried out using male Wistar rats (Janvier Labs, C.S. 4105, Saint-Berthevin F-53941, France), weighing 200-260 g on the day of surgery. Before surgery, the animals were housed in groups 2-4 in polysulfone cages (floor area=1500 cm^2) under standard conditions: room temperature (22±2° C.), hygrometry (55±10%), light/dark cycle (12 h/12 h), air replacement (15-20 volumes/hour), water and food (SAFE, ref. A04) ad libitum. The animals were allowed to acclimate to environmental conditions for at least 5 days prior to experimentation. Rats were anesthetised with sodium pentobarbital (60 mg/kg i.p.), and placed on a servocontrolled heating table to maintain rectal temperature close to 37° C. After endotracheal intubation animals were mechanically ventilated. The abdominal cavity was exposed by medial laparotomy, both left and right renal arteries will be identified, carefully dissected from the renal vein and clamped for 40 min. During this clamping period the abdominal cavity was kept closed. The clamps were released, perfusion to the kidneys re-established and the abdominal cavity sutured. Animals where reperfusion were incomplete, as judged visually, were excluded. Post-surgical analgesia was ensured by subcutaneous administration of buprenorphine (10 50 μg/kg, sc) twice daily for 2 days (including the day of surgery). After surgery, the animals were individually housed. The animals were observed and weighted daily and the sutures were examined and disinfected with antiseptic solution (povidone-iodine) if needed.\nA follow-up of body weight and mortality were performed for all animals, the day of surgery and during the 7 days following ischaemia. In order to determine creatinine and blood urea nitrogen (BUN) concentrations in plasma, 6 blood samples of at least 0.3 mL were taken from each animal: before surgery and then on days 1, 2, 3 (before vehicle/SBL01 administrations), 4 and 7 after surgery. The following parameters were measured: Creatinine concentration in plasma, Blood urea nitrogen concentration, and Body weight. […]", "data": [{"smiles": "Oc1ccc(-c2cc3cccnc3[nH]2)cc1", "note": "[Compound 7, 4-(1H-pyrrolo[2,3-b]pyridin-2-yl)phenol]", "values": [{"measurement": "creatinine plasma level", "setting": "Day 2 after surgery, vs vehicle, FIG. 40", "value": "significant decrease"}, {"measurement": "urea plasma level", "setting": "Day 2 after surgery, vs vehicle, FIG. 41", "value": "significant decrease"}, {"measurement": "renal function during artery occlusion (protection against renal ischaemic failure)", "setting": "compared to the vehicle", "value": "protective effect"}]}]}
